Reference: US11278541B2, “Low dose combination therapy for treatment of myeloproliferative neoplasms” (Incyte Corporation, priority 2017, dated 2022)
pIC50: −log10 of the molar value. Structures can show the parent of a compound that is named as a salt.

Assays:
[1] = Protein binding in human serum (equilibrium dialysis); format: in vitro ADME; settings: 0.3 μM-10 μM
Description: For human, the average in vitro serum fraction unbound (fu) of 7.0%. For the protein binding determination, the Multi-Equilibrium Dialyzer System™ and diachema membranes from Harvard Apparatus (Holliston, Mass.) were utilized. Samples were protein precipitated, matrix matched and then centrifuged. The supernatant was transferred and analyzed using LC-MS/MS. The percent fraction unbound for in vitro samples was calculated using final peak area ratios in post-dialysis buffer divided by final peak area ratios in post-dialysis serum, with correction applied for volume shift.

[2] = Free fraction in media of the Example 3 assay; format: in vitro ADME; settings: cell assay media (Example 3 assay); media of Example 3 assay
Text: The assay in Example 3 involved plating cells from blood in media. […] The serum free fraction and media free fractions of 7% and 58% can be used to convert the results in Example 3 to an human dose assuming a linear dose-response curve.

[3] = Conversion of Example 3 cell activity to protein-binding adjusted activity and human dose
[4] = system: pBAD in KMS12BM cell line; test: pBAD inhibition by patient plasma samples incubated ex vivo with KMS12BM cell line; format: in vivo, human; settings: KMS-12-BM, 192 h; 80 mg BID, cycle 1, day 8, time course
Description: Plasma samples from patients were incubated ex vivo with the KMS12BM cell line for 2.5 hours at 37° C. Whole cell lysates were prepared from the cells, and levels of pBAD were determined using an ELISA.

[5] = target: T1, Pim2 (Homo sapiens, UniProt Q9P1W9); test: Pim-2 kinase assay (Assay B); format: biochemical; settings: 1 mM ATP
T1 construct: purchased Invitrogen PV3649
T1 sequence (Q9P1W9 whole entry): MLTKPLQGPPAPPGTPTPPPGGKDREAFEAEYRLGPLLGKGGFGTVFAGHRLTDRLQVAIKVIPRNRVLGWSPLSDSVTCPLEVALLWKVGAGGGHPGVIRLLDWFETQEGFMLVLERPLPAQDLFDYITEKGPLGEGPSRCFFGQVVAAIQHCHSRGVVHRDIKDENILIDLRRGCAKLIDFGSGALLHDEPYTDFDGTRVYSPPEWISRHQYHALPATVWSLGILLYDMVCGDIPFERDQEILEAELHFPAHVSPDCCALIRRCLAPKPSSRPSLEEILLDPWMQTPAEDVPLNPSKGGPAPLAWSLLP
Description: Pim-2 kinase assay—20 μL reactions were run in white 384 well polystyrene plates dotted with 0.8 μL compound/DMSO in the assay buffer (50 mM Tris, pH 7.5, 0.01% Tween-20, 5 mM MgCl2, 0.01% BSA, 5 mM DTT), containing 0.05 μM Fluorescein-labeled CREBtide peptide substrate (Invitrogen PV3508), 1 mM ATP, and 1 nM enzyme (Invitrogen PV3649) for 2 h at 25° C. Reactions were stopped by addition of 10 μL TR-FRET Dilution Buffer (Invitrogen PV3574) with 30 mM EDTA and 1.5 nM LanthaScreen Tb-CREB pSer133 antibody (Invitrogen PV3566). After 30 min. incubation at room temperature, plates were read on a PHERAstar FS plate reader (BMG Labtech).

[6] = target: T2, Pim1 (Homo sapiens, UniProt P11309); test: Pim-1 kinase assay (Assay B); format: biochemical; settings: 1 mM ATP
T2 construct: purchased Invitrogen PV3503
T2 sequence (P11309 whole entry): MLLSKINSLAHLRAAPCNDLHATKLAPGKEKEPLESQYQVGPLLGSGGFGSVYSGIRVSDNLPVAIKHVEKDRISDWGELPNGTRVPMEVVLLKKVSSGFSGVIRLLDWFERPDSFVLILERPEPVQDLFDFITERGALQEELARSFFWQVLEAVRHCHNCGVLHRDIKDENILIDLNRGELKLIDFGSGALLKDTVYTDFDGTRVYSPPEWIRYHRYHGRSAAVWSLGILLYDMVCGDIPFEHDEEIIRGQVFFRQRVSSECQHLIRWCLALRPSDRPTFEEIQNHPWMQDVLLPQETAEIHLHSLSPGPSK
Description: Pim-1 and Pim-3 kinase assays—20 μL reactions were run in white 384 well polystyrene plates dotted with 0.8 μL compound/DMSO in the assay buffer (50 mM Tris, pH 7.5, 0.01% Tween-20, 5 mM MgCl2, 0.01% BSA, 5 mM DTT), containing 0.05 μM Biotin-labeled BAD peptide substrate (AnaSpec 62269), 1 mM ATP, and 2.5 pM (Pim-1, Invitrogen PV3503) or 1.25 pM (Pim-3, Millipore 14-738) enzyme for 1 h at 25° C. Reactions were stopped by addition of 10 μL STOP Buffer (150 mM Tris, pH=7.5, 150 mM NaCl, 75 mM EDTA, 0.01% Tween-20, 0.3% BSA) supplemented with Phospho-Bad (Ser112) Antibody (Cell Signaling 9291) diluted 666-fold, and Streptavidin donor beads (PerkinElmer 6760002) along with Protein-A acceptor beads (PerkinElmer 6760137) at 15 μg/mL each. Supplementation of the STOP buffer with beads and stopping the reactions were done under reduced light. Prior to the stopping reactions STOP buffer with beads was pre-incubated for 1 h in the dark at room temperature. After stopping the reactions, plates were incubated for 1 h in the dark at room temperature before reading on a PHERAstar FS plate reader (BMG Labtech) under reduced light.

[7] = system: Peripheral blood mononuclear cells from an MPN patient (PV, JAK2-V617F+); test: Epo-independent erythroid colony formation; format: cell-based, human; settings: Compound 1 alone, colonies scored after 12 days
Text: Epo-independent erythroid colonies were scored after 12 days. […] The lower measured % growth indicates synergy.

[8] = target: Pim3 (Homo sapiens, UniProt Q86V86); test: Pim-3 kinase assay (Assay B); format: biochemical; settings: 1 mM ATP

| protein binding [1] | fraction unbound ([1]; read-out: average in vitro serum fraction unbound (fu)) | fraction unbound [2] | shift in activity (media to serum protein binding) ([3]; (58%)/7%) [fold] | pIC50 [5] | pIC50 [6] | pIC50 [8] | SMILES | inhibition level corresponding to protein-binding adjusted activity ([3]; adjusted activity 8.3 nM) | inhibition level corresponding to protein-binding adjusted activity ([3]; adjusted activity 41 nM) | Protein-binding adjusted activity ([3]; cell activity Example 3: 1 nM) [nM] | Protein-binding adjusted activity ([3]; cell activity Example 3: 5 nM) [nM] | Protein-binding adjusted activity ([3]; cell activity Example 3: 20 nM) [nM] | inhibition at 80 mg [4] [%] | neoplastic erythroid colony formation of JAK2-V617F(+) MPN hematopoietic progenitors [7] |
| --- | --- | --- | --- | --- | --- | --- | --- | --- | --- | --- | --- | --- | --- | --- |
| high protein binding | 0.07 | 0.58 | 8.3 | ≥ 7.00 | ≥ 7.00 | ≥ 7.00 | C[C@H]1CN(c2c(NC(=O)c3ccc(F)c(-c4c(F)cccc4F)n3)cnc3c2CC[C@H]3O)C[C@@H](N)[C@@H]1O [Compound 1, N-{(7R)-4-[(3R,4R,5S)-3-Amino-4-hydroxy-5-methylpiperidin-1-yl]-7-hydroxy-6,7-dihydro-5H-cyclopenta[b]pyridin-3-yl}-6-(2,6-difluorophenyl)-5-fluoropyridine-2-carboxamide] | IC5.7 | IC23 | 8.3 | 41 | 166 | 76 | Inhibition |
|  |  |  |  | > 7.46 | > 7.46 | > 7.46 | C[C@H]1CN(c2c(NC(=O)c3ccc(F)c(-c4c(F)cccc4F)n3)cnc3c2CC[C@H]3O)C[C@@H](N)[C@@H]1O [dihydrochloric acid salt of Compound 1] |  |  |  |  |  |  |  |
|  |  |  |  | > 7.46 | > 7.46 | > 7.46 | C[C@H]1CN(c2c(NC(=O)c3ccc(F)c(-c4c(F)cccc4F)n3)cnc3c2CC[C@H]3O)C[C@@H](N)[C@@H]1O [phosphoric acid salt of Compound 1] |  |  |  |  |  |  |  |
